Values quoted from earlier work as cited in patent publication US20100056645A1, “Chromatographic Media and Chromatographic Equipment Storage Solutions and Use Thereof” (priority 2007, published 2010).

System: gram positive bacteria

OCc1ccccc1 [benzyl alcohol]
pH of optimal bactericidal activity: < 5.0
